Source: patent US7989599B2, “Activator including biosurfactant as active ingredient, mannosyl erythritol lipid, and production method thereof” (Toyo Boseki Kabushiki Kaisha, priority 2009, dated 2011)

Test: Ability to form liquid crystal, water-invading method
Format: physicochemical
Conditions: polarization microscope, compared with conventional MEL, FIGS. 10 and 11
From the text: Evaluation of the ability to form liquid crystals can be made by a conventional and publicly known method. An example of the method for easily comparing the ability to form liquid crystals is a water invading method. In this method, MEL is applied on a slide glass and distilled water is dropped beside the applied area, and a liquid crystal phase formed at an interface by dropping of the distilled water is observed by a microscope. Thus, behavior of liquid crystal formation can be searched. With the method, it is possible to easily compare the conventional MEL with the MEL optical isomer of the present invention in terms of their abilities to form liquid crystals.
MEL produced by Pseudozyma tsukubaensis JCM 10324 strain obtained in Example 8 and conventional MEL produced by Pseudozyma antarctica KM-34 (FERMP-20730) strain were compared with each other by a water-invading method in terms of their abilities to form liquid crystal.

Substance: 1-(6′-acetyl-2′,3′-di-O-alka(ke)noyl-β-D-mannnopyranosyl-)meso-erythritol
- ability to form liquid crystal (lamella phase): has an ability to form lamella phase in a very wider concentration range than conventional MEL
